Target: T1, AR (Homo sapiens, UniProt P10275, T878A)
T1 construct: LNCaP cells express an endogenous mutant AR that is found in prostate cancer patients; host or cells: LNCaP
T1 sequence (P10275 1-920 T878A): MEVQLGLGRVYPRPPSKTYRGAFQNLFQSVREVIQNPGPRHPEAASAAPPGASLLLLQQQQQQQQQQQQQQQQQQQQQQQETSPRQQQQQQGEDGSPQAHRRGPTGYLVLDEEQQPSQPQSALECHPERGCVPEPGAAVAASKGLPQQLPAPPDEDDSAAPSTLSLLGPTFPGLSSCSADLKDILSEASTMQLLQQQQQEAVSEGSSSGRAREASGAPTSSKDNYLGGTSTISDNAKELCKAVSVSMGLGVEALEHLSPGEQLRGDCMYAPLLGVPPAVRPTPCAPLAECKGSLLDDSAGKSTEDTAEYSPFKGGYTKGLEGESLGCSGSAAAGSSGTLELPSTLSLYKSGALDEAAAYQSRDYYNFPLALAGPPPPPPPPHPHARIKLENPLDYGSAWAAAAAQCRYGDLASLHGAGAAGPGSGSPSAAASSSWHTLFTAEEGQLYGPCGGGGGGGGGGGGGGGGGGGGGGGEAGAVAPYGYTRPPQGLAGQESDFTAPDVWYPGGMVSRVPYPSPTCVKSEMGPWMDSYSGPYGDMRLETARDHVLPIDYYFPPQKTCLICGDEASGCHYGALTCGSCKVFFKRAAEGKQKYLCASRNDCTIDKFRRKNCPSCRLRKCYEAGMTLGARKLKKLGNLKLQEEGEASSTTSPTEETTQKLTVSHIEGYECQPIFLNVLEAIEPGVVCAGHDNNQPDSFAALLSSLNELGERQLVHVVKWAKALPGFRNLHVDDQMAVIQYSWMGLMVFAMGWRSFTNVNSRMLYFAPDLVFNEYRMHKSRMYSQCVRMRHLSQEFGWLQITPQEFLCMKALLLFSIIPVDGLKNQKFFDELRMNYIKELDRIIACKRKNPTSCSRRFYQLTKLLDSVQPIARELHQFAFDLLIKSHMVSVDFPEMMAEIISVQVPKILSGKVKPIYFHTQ
Assay: Western blot analysis of AR expression in JC9-treated LNCaP cells over 5 days
Type: cell-based
From the text: A Western blot method suitable for detecting degradation of the androgen receptor (AR) has been previously described (Su et al., 1999). Briefly, cells (for example, LNCap cells) are harvested either in 2× sodium dodecyl sulfate (SDS) loading buffer or in radioimmunoprecipitation assay (RIPA) lysis buffer (see “Antibodies: A Laboratory Manual”, E. Harlow and D. Lane, Cold Spring Harbor Laboratory, 1988) containing 10 micrograms/milliliter of benzamidine, 10 micrograms/milliliter of trypsin inhibitor, and 1 millimolar of phenylmethylsulfonyl fluoride (PMSF). Total protein (40 micrograms/sample, or as desired) from cell lysate is separated on a SDS-PAGE gel. […] The membrane is rinsed with PBST, and a suitable visualization procedure is used to detect the secondary antibody (for example, horseradish peroxidase can be detected with a colorimetric substrate or by a chemiluminescent substrate such as that provided by the enhanced chemiluminescence (ECL Plus) kit from Amersham). […] Quantification of the protein signals can be carried out by densitometry, using appropriate software (ImageJ software from the National Institutes of Health).
AR is the key factor in regulating prostate cancer cells' response to androgens. […] A color detection method was subsequently employed to examine AR and actin protein signals in the membranes, and the resultant protein signals were quantitated by densitometry. […]

In the case of `COc1ccc(C=CC(=O)C=C(O)C=Cc2ccc(OC)c(OC)c2)cc1OC` [JC9, 5-hydroxy-1,7-bis(3,4-dimethoxyphenyl)-1,4,6-heptatrien-3-one], the “time at which AR reduction was first observed” value (5 μM JC9, continuous incubation) was 2 days and the “AR level remaining (normalized AR signal, percentage of baseline Day 0)” value (5 μM JC9, end of 5-day incubation) was roughly 10%.

Source: patent US20060084704A1, “Methods and compositions for enhancing degradation of nuclear receptor transcription factors and uses thereof” (priority 2004, published 2006)
